Data published in patent EP4635500A1, “THERAPEUTIC AGENT FOR BACTERIAL INFECTION” (Sumitomo Pharma Co., Ltd., priority 2022, dated 2024).
In brackets after ≈: the same amount, converted by molar mass. Where two headings read alike, the source gives them in different places.

Key:
Assay type in all cases: cell-based
P. aeruginosa = assay: MIC, broth microdilution, CDC/FDA Antibiotic Resistance Isolate Bank (Example 7, Tables 10, 15)
Providencia rettgeri = assay: MIC, broth microdilution, standard strains and Japanese clinical isolates (Example 5, Table 4); settings: ATCCBAA2525; KUB4010 Providencia rettgeri ATCC BAA-2525, OXA-181
Enterobacter cloacae = assay: as above
53 CRE and CPE strains = assay: MICrange, MIC50, MIC80, MIC90 for 53 bacterial isolates (Example 5, Table 5); settings: 53 bacterial isolates
CRE and CPE strains = assay: MIC, broth microdilution, standard strains and Japanese clinical isolates (Example 5, Table 4 continued; organism of each KUB strain not given)
Escherichia coli = assay: MIC, broth microdilution, standard strains and Japanese clinical isolates (Example 5, Table 4)
Enterobacter hormaechei = assay: as above; settings: ATCCBAA2082; KUB4001 Enterobacter hormaechei ATCC BAA-2082, KPC-2
Klebsiella pneumoniae = assay: as above
Enterobacterales = assay: MIC, broth microdilution, CDC/FDA Antibiotic Resistance Isolate Bank (Example 7, Tables 8, 11, 12)

SMILES: O=C(O)c1cn(C2CC2)c2cc(N3CCNCC3)c(F)cc2c1=O [Ciyprofloxacin]
- MIC (P. aeruginosa; P. aeruginosa KUB No. 5681, AR Bank # 248): 8 µg/mL (≈ 24.1 µM)
- MIC (P. aeruginosa; P. aeruginosa KUB No. 5684, AR Bank # 251): 4 µg/mL (≈ 12.1 µM)
- MIC (P. aeruginosa; P. aeruginosa KUB No. 5685, AR Bank # 252): 8 µg/mL (≈ 24.1 µM)
- MIC (P. aeruginosa; P. aeruginosa KUB No. 5694, AR Bank # 261): 2 µg/mL (≈ 6.04 µM)
- MIC (P. aeruginosa; P. aeruginosa KUB No. 5695, AR Bank # 262): 0.5 µg/mL (≈ 1.51 µM)
- MIC (P. aeruginosa; P. aeruginosa KUB No. 5696, AR Bank # 263): 1 µg/mL (≈ 3.02 µM)
- MIC (P. aeruginosa; P. aeruginosa KUB No. 5700, AR Bank # 267): 8 µg/mL (≈ 24.1 µM)
- MIC (P. aeruginosa; P. aeruginosa KUB No. 5701, AR Bank # 268): 4 µg/mL (≈ 12.1 µM)
- MIC (P. aeruginosa; P. aeruginosa KUB No. 5703, AR Bank # 270): 8 µg/mL (≈ 24.1 µM)

SMILES: C[C@@H](O)[C@H]1C(=O)N2C(C(=O)O)=C(SCCN=CN)C[C@H]12 [Imipenem, imipenem]
- MIC (Providencia rettgeri): 4 µg/mL (≈ 13.4 µM)
- MIC (Enterobacter cloacae; ATCCBAA2341, KUB4002 Enterobacter cloacae ATCC BAA-2341, KPC-3): 16 µg/mL (≈ 53.4 µM)
- MIC (Enterobacter cloacae; ATCCBAA2468, KUB4006 Enterobacter cloacae ATCC BAA-2468, NDM-1): > 32 µg/mL
- MIC50 (53 CRE and CPE strains; read-out: MIC50): 4 µg/mL (≈ 13.4 µM)
- MIC80 (53 CRE and CPE strains; read-out: MIC80): 32 µg/mL (≈ 107 µM)
- MIC90 (53 CRE and CPE strains; read-out: MIC90): 32 µg/mL (≈ 107 µM)
- MIC (CRE and CPE strains; strain KUB3148, carbapenemase gene KPC-3, read-out: MIC): 1 µg/mL (≈ 3.34 µM)
- MIC (CRE and CPE strains; strain KUB3149, carbapenemase gene NDM-1, read-out: MIC): 4 µg/mL (≈ 13.4 µM)
- MIC (CRE and CPE strains; strain KUB3150, carbapenemase gene OXA-48, read-out: MIC): 0.5 µg/mL (≈ 1.67 µM)
- MIC (CRE and CPE strains; strain KUB3151, carbapenemase gene IMP-1, read-out: MIC): 0.5 µg/mL (≈ 1.67 µM)
- MIC (CRE and CPE strains; strain KUB3152, carbapenemase gene KPC-2, read-out: MIC): 8 µg/mL (≈ 26.7 µM)
- MIC (CRE and CPE strains; strain KUB3153, carbapenemase gene KPC-3, read-out: MIC): 16 µg/mL (≈ 53.4 µM)
- MIC (CRE and CPE strains; strain KUB3154, carbapenemase gene KPC-2, read-out: MIC): 1 µg/mL (≈ 3.34 µM)
- MIC (CRE and CPE strains; strain KUB3163, carbapenemase gene IMP-1): 2 µg/mL (≈ 6.68 µM)
- MIC (CRE and CPE strains; strain KUB3606, carbapenemase gene KPC-38): > 32 µg/mL
- MIC (CRE and CPE strains; strain KUB3620, carbapenemase gene -): 32 µg/mL (≈ 107 µM)
- MIC (CRE and CPE strains; strain KUB3628, carbapenemase gene IMP-1): 32 µg/mL (≈ 107 µM)
- MIC (CRE and CPE strains; strain KUB3629, carbapenemase gene IMP-1): 8 µg/mL (≈ 26.7 µM)
- MIC (Escherichia coli; ATCCBAA2452, KUB4005 Escherichia coli ATCC BAA-2452, NDM-1): 4 µg/mL (≈ 13.4 µM)
- MIC (Escherichia coli; ATCCBAA2471, KUB4007 Escherichia coli ATCC BAA-2471, NDM-6): 32 µg/mL (≈ 107 µM)
- MIC (Enterobacter hormaechei): 32 µg/mL (≈ 107 µM)
- MIC (Klebsiella pneumoniae; ATCCBAA1898, KUB3996 Klebsiella pneumoniae ATCC BAA-1898, KPC-2): 32 µg/mL (≈ 107 µM)
- MIC (Klebsiella pneumoniae; ATCCBAA1899, KUB3997 Klebsiella pneumoniae ATCC BAA-1899, KPC-2): 8 µg/mL (≈ 26.7 µM)
- MIC (Klebsiella pneumoniae; ATCCBAA1900, KUB3998 Klebsiella pneumoniae ATCC BAA-1900, KPC-3): 32 µg/mL (≈ 107 µM)
- MIC (Klebsiella pneumoniae; ATCCBAA1904, KUB3999 Klebsiella pneumoniae ATCC BAA-1904, KPC-3): 4 µg/mL (≈ 13.4 µM)
- MIC (Klebsiella pneumoniae; ATCCBAA2078, KUB4000 Klebsiella pneumoniae ATCC BAA-2078, KPC-3): 8 µg/mL (≈ 26.7 µM)
- MIC (Klebsiella pneumoniae; ATCCBAA2146, KUB4011 Klebsiella pneumoniae ATCC BAA-2146, NDM-1): > 32 µg/mL
- MIC (Klebsiella pneumoniae; ATCCBAA2342, KUB4003 Klebsiella pneumoniae ATCC BAA-2342, KPC-3): 8 µg/mL (≈ 26.7 µM)
- MIC (Klebsiella pneumoniae; ATCCBAA2343, KUB4004 Klebsiella pneumoniae ATCC BAA-2343, KPC-3): 16 µg/mL (≈ 53.4 µM)
- MIC (Klebsiella pneumoniae; ATCCBAA2472, KUB4008 Klebsiella pneumoniae subsp. Pneumoniae ATCC BAA-2472, NDM-1): 32 µg/mL (≈ 107 µM)
- MIC (Klebsiella pneumoniae; ATCCBAA2473, KUB4009 Klebsiella pneumoniae ATCC BAA-2473, NDM-1): 32 µg/mL (≈ 107 µM)
- MIC (Klebsiella pneumoniae; KUB3631 Klebsiella pneumoniae Clinical isolate, IMP-1): 1 µg/mL (≈ 3.34 µM)
- MIC (Klebsiella pneumoniae; KUB3633 Klebsiella pneumoniae Clinical isolate, IMP-6): 0.12 µg/mL (≈ 0.401 µM)
- MIC (Klebsiella pneumoniae; KUB3634 Klebsiella pneumoniae Clinical isolate, IMP-6): 0.12 µg/mL (≈ 0.401 µM)
- MIC (Klebsiella pneumoniae; KUB3635 Klebsiella pneumoniae Clinical isolate, IMP-1): > 32 µg/mL

SMILES: C[C@H]1COc2c(N3CCN(C)CC3)c(F)cc3c(=O)c(C(=O)O)cn1c23 [Levoflexacin]
- MIC (Enterobacterales; Enterobacter aerogenes, KUB No. 5559, AR Bank # 62): 2 µg/mL (≈ 5.53 µM)
- MIC (Enterobacterales; Enterobacter aerogenes, KUB No. 5571, AR Bank # 74): 0.12 µg/mL (≈ 0.332 µM)
- MIC (Enterobacterales; Enterobacter cloacae, KUB No. 5562, AR Bank # 65): 0.12 µg/mL (≈ 0.332 µM)
- MIC (Enterobacterales; Enterobacter cloacae, KUB No. 5569, AR Bank # 72): 0.5 µg/mL (≈ 1.38 µM)
- MIC (Enterobacterales; Enterobacter cloacae, KUB No. 5570, AR Bank # 73): 0.25 µg/mL (≈ 0.692 µM)
- MIC (Enterobacterales; Enterobacter cloacae, KUB No. 5590, AR Bank # 93): 4 µg/mL (≈ 11.1 µM)
- MIC (Enterobacterales; Escherichia coli, KUB No. 5558, AR Bank # 61): 0.12 µg/mL (≈ 0.332 µM)
- MIC (Enterobacterales; Escherichia coli, KUB No. 5564, AR Bank # 67): 32 µg/mL (≈ 88.6 µM)
- MIC (Enterobacterales; Escherichia coli, KUB No. 5566, AR Bank # 69): 0.12 µg/mL (≈ 0.332 µM)
- MIC (Enterobacterales; Escherichia coli, KUB No. 5574, AR Bank # 77): 0.06 µg/mL (≈ 0.166 µM)
- MIC (Enterobacterales; Escherichia coli, KUB No. 5578, AR Bank # 81): 32 µg/mL (≈ 88.6 µM)
- MIC (Enterobacterales; Escherichia coli, KUB No. 5581, AR Bank # 84): 64 µg/mL (≈ 177 µM)
- MIC (Enterobacterales; Escherichia coli, KUB No. 5582, AR Bank # 85): 32 µg/mL (≈ 88.6 µM)
- MIC (Enterobacterales; Escherichia coli, KUB No. 5583, AR Bank # 86): 8 µg/mL (≈ 22.1 µM)
- MIC (Enterobacterales; Escherichia coli, KUB No. 5586, AR Bank # 89): 0.12 µg/mL (≈ 0.332 µM)
- MIC (Enterobacterales; Klebsiella oxytoca, KUB No. 5568, AR Bank # 71): 0.5 µg/mL (≈ 1.38 µM)
- MIC (Enterobacterales; Klebsiella ozaenae, KUB No. 5593, AR Bank # 96): 32 µg/mL (≈ 88.6 µM)
- MIC (Enterobacterales; Klebsiella pneumoniae, KUB No. 5563, AR Bank # 66): 64 µg/mL (≈ 177 µM)
- MIC (Enterobacterales; Klebsiella pneumoniae, KUB No. 5565, AR Bank # 68): 64 µg/mL (≈ 177 µM)
- MIC (Enterobacterales; Klebsiella pneumoniae, KUB No. 5572, AR Bank # 75): >64 µg/mL
- MIC (Enterobacterales; Klebsiella pneumoniae, KUB No. 5573, AR Bank # 76): 1 µg/mL (≈ 2.77 µM)
- MIC (Enterobacterales; Klebsiella pneumoniae, KUB No. 5576, AR Bank # 79): 64 µg/mL (≈ 177 µM)
- MIC (Enterobacterales; Klebsiella pneumoniae, KUB No. 5577, AR Bank # 80): 0.12 µg/mL (≈ 0.332 µM)
- MIC (Enterobacterales; Klebsiella pneumoniae, KUB No. 5584, AR Bank # 87): >64 µg/mL
- MIC (Enterobacterales; Klebsiella pneumoniae, KUB No. 5594, AR Bank # 97): >64 µg/mL
- MIC (Enterobacterales; Klebsiella pneumoniae, KUB No. 5595, AR Bank # 98): 64 µg/mL (≈ 177 µM)
- MIC (Enterobacterales; Providencia rettgeri, KUB No. 5579, AR Bank # 82): 0.25 µg/mL (≈ 0.692 µM)
- MIC (Enterobacterales; Serratia marcescens, KUB No. 5588, AR Bank # 91): 0.25 µg/mL (≈ 0.692 µM)
